According to ChEMBL document CHEMBL4480376, “Studies on spiro[4.5]decanone prolyl hydroxylase domain inhibitors” (Medchemcomm, 2019):
Blank lines part the entries; values can stand above or below the compound they belong to. Active and inactive are the calls of the source. The calls are words filed in the database; no cut-off is given here.

Experiments:
[1] = Inhibition of FIH (unknown origin) using HIF-1alpha CAD (D788 to L822 residues) as substrate; parameters: species or system Homo sapiens
[2] = biological target: T1, Lysine-specific demethylase 4A (Homo sapiens, UniProt O75164); experiment: Inhibition of KDM4A (unknown origin) using H3 K9Me3 (1 to 15 residues) as substrate
T1 sequence (O75164 whole entry): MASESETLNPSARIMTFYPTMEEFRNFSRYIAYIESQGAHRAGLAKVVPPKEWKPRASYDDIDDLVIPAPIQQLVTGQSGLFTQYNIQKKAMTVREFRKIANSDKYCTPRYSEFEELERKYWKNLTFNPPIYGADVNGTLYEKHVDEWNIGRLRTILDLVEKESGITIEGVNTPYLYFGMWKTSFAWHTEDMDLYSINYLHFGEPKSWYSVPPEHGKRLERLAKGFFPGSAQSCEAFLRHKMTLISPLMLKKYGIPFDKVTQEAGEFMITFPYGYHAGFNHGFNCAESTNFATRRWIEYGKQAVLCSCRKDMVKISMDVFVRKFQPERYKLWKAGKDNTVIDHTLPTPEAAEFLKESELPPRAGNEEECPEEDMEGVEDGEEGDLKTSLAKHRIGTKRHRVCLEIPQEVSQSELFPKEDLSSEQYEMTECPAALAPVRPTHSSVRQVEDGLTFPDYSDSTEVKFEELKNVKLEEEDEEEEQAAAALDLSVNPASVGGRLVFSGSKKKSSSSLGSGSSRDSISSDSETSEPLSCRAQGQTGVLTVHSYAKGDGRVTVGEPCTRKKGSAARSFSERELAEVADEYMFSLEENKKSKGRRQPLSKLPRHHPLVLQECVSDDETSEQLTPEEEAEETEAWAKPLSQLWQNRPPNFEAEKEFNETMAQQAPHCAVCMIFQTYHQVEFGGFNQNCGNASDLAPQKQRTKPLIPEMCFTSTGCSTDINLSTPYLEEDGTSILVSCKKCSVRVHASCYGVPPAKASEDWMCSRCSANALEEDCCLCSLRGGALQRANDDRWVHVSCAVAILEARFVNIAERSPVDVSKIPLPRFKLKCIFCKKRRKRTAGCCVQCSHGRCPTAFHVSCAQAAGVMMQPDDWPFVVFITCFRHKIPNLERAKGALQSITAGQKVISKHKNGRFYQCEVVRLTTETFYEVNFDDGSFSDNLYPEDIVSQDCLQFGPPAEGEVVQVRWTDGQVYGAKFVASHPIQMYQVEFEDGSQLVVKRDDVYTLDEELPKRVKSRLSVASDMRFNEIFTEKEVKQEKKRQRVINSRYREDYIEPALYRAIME

[3] = biological target: Egl nine homolog 1 (Homo sapiens) (UniProt Q9GZT9); experiment: Inhibition of N-terminal His6-tagged truncated PHD2 (181 to 426 residues) (unknown origin) expressed in Escherichia coli BL21 DE3 using H1F1-alpha NODD as substrate preincubated for 15 mins followed by substrate addition and measured after 15 mins by mass spectrometry
[4] = biological target: Egl nine homolog 1 (Homo sapiens) (UniProt Q9GZT9); experiment: Inhibition of N-terminal His6-tagged truncated PHD2 (181 to 426 residues) (unknown origin) expressed in Escherichia coli BL21 DE3 using H1F1-alpha CODD as substrate preincubated for 15 mins followed by substrate addition and measured after 15 mins by mass spectrometry

Chain of Egl nine homolog 1 (Homo sapiens) (Q9GZT9 2-426 limits assumed): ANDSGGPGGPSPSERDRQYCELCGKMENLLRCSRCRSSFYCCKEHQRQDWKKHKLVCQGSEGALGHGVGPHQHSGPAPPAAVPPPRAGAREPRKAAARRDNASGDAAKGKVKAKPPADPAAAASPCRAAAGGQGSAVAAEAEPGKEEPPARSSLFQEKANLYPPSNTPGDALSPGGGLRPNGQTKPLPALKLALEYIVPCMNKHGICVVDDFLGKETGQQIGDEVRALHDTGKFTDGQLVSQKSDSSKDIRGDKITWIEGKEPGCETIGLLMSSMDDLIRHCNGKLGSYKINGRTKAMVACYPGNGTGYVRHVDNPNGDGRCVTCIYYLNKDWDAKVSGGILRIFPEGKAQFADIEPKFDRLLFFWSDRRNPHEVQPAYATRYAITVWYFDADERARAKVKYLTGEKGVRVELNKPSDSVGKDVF

Compound: Cc1cccnc1CN1CCC2(CC1)C(=O)N(c1ccc(-c3ccccc3)cc1)C(=O)N2c1cc(C(=O)O)ccn1
IC50 [1]: > 25 µM | IC50 [2]: > 25 µM

Compound: O=C1N(c2ccc(-c3ccccc3)cc2)C(=O)C2(CCN(Cc3ncc[nH]3)CC2)N1c1ncccn1
IC50 [1]: > 25 µM | IC50 [2]: > 25 µM

Compound: O=C1N(c2ccc(-c3ccccc3)cc2)C(=O)C2(CCNCC2)N1c1ncccn1
IC50 [1]: > 25 µM | IC50 [2]: > 25 µM

IC50 [1]: > 25 µM | IC50 [2]: > 25 µM
Compound: Cc1cccnc1CN1CCC2(CC1)NC(=O)N(c1ccc(-c3ccccc3)cc1)C2=O

Compound: O=C(Nc1ccc(-c2ccccc2)cc1)C1CCCN(Cc2ncccc2O)C1 (centres undefined)
inhibition [3]: inactive | inhibition [4]: inactive

Compound: O=C1N(c2ccc(-c3ccccc3)cc2)C(=O)C2(CCN(Cc3cccs3)CC2)N1c1ncccn1
IC50 [1]: > 25 µM | IC50 [2]: > 25 µM

Compound: Cc1cccnc1CN1CCC2(CC1)C(=O)N(c1ccc(-c3ccccc3)cc1)C(=O)N2c1ncccn1
IC50 [1]: > 25 µM

Compound: COc1cccc(CN2CCC3(CC2)C(=O)N(c2ccc(-c4ccccc4)cc2)C(=O)N3c2ncccn2)n1
IC50 [1]: > 25 µM | IC50 [2]: > 25 µM

Compound: O=C(NCc1ccc(-c2ccccc2)cc1)C1CCN(Cc2ccccc2O)CC1
inhibition [3]: inactive | inhibition [4]: inactive

Compound: O=C(NCc1ccc(-c2ccccc2)cc1)C1CCN(Cc2ncccc2O)CC1
inhibition [3]: inactive | inhibition [4]: inactive

IC50 [1]: > 25 µM | IC50 [2]: > 25 µM
Compound: Cn1ccnc1CN1CCC2(CC1)NC(=O)N(c1ccc(-c3ccccc3)cc1)C2=O

Compound: O=C(Nc1ccc(-c2ccccc2)cc1)C1CCN(Cc2ncccc2O)CC1
inhibition [3]: inactive | inhibition [4]: inactive

Compound: O=C(Nc1ccc(-c2ccccc2)cc1)C1CCN(Cc2ccccc2O)CC1
inhibition [3]: inactive | inhibition [4]: inactive

Compound: Cn1ccnc1CN1CCC2(CC1)C(=O)N(c1ccc(-c3ccccc3)cc1)C(=O)N2c1ncccn1
IC50 [1]: > 25 µM | IC50 [2]: > 25 µM

Compound: COc1ccnc(N2C(=O)N(c3ccc(-c4ccccc4)cc3)C(=O)C23CCN(Cc2ncccc2C)CC3)n1
IC50 [1]: 21.6 µM | IC50 [2]: > 25 µM

Compound: O=C1N(c2ccc(-c3ccccc3)cc2)C(=O)C2(CCN(Cc3ccccc3O)CC2)N1c1ncccn1
IC50 [1]: > 25 µM | IC50 [2]: 12.3 µM

Compound: Cc1cccnc1CN1CCCC(C(=O)Nc2ccc(-c3ccccc3)cc2)C1 (centres undefined)
inhibition [3]: inactive | inhibition [4]: inactive

Compound: O=C(Nc1ccc(-c2ccccc2)cc1)C1CCCN(Cc2ccccc2O)C1 (centres undefined)
inhibition [3]: inactive | inhibition [4]: inactive

Compound: Cc1cccnc1CN1CCC(C(=O)Nc2ccc(-c3ccccc3)cc2)CC1
inhibition [3]: inactive | inhibition [4]: inactive

Compound: Cc1cccnc1CN1CCC(C(=O)NCc2ccc(-c3ccccc3)cc2)CC1
inhibition [3]: inactive | inhibition [4]: inactive
